Here are results for 27 compounds from patent publication US9511073B2, “Aromatic amides and uses thereof” (TAXIS Pharmaceuticals, Inc., priority 2011, dated 2016).

Data set [1] has as its system FtsZ-G196A Staphylococcus aureus (Isolate ID GG/190723/sa/1.2). The experiment in a line: Bacterial assay: MIC, FtsZ G196A mutant strain. It is filed as cell-based. The method, then: Compounds are tested for antimicrobial activity by susceptibility testing in liquid or on solid media. Minimum inhibitory concentrations (MICs) for compounds against each strain are determined by the broth microdilution or agar dilution method according to the guidelines of the Clinical Laboratories and Standards Institute, formerly the National Committee for Clinical Laboratory Standards (Clinical Laboratories and Standards Institute. Methods for Dilution Antimicrobial Susceptibility Tests for Bacteria That Grow Aerobically; Approved Standard—Seventh Edition. Document M7-A7. CLSI, Wayne, Pa., 2006; Clinical Laboratories and Standards Institute). The bacterial strains tested include S. aureus (Staphylococcus aureus (Isolate ID ATCC 29213)) and an FtsZ mutant of this isolate (FtsZ-G196A Staphylococcus aureus (Isolate ID GG/190723/sa/1.2)). Compound MICs were determined to be in the following activity ranges “A” activity≦0.25 μg/mL; “B” activity>0.25 μg/mL-1.0 μg/mL; “C” activity>1.0 μg/mL-16 μg/mL; “D” activity>16 μg/mL and ND=not determined. The bracketed entries indicate entantiomer(s) and their activity.
The comparative activity of selected compounds having a bromo-substituted oxazole against their corresponding non-brominated analogues is shown in Table 4.

For data set [2], the system named is Staphylococcus aureus (Isolate ID ATCC 29213). Description: Bacterial assay: MIC by broth microdilution or agar dilution (CLSI), S. aureus ATCC 29213. The class given is cell-based. To be noted: Staphylococcus aureus. The method, boiled down: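 MICs by CLSI broth microdilution or agar dilution against S. aureus ATCC 29213 and its FtsZ-G196A mutant. Values reported as ranges: A ≤0.25 μg/mL, B >0.25–1.0, C >1.0–16, D >16 μg/mL.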
A general note: In broth dilution the organism is exposed to a series of concentrations in liquid medium.

A short description of data set [3]: Pharmacokinetic assay: plasma concentration by LC/MS/MS after single intravenous or peroral dose of 3 mg/kg. Conditions: 3 mg/kg IV dosing in mice. It is filed as in vivo. The method, then:
The pharmacokinetic profiles of selected comparator compounds A-N in Table 6 and compounds of the invention were determined by measuring the compound concentration in plasma by LC/MS/MS following a single intravenous or peroral administration of the compounds at a dose of 3 mg/kg. The concentrations described are the mean plasma concentrations at each time point from three animals. Intravenous dose formulation was administered as a single bolus dose through the tail vein. Oral dose formulation was administered to animals by an oral gavage needle. In both cases the dose volume was 5.0 mL/kg. Blood was collected from anesthetized mice through a capillary guided into the retro-orbital plexus. The collected blood was centrifuged to obtain plasma and the compounds extracted into methanol prior to determining the compound concentration by LC/MS/MS. The results are shown graphically in FIG. 1 and for the AUC and CL parameters in Table 6.

[4] abbreviates: read-out: MIC (μg/mL) G196A mutant strain.
Setting [5] is: ATCC29213, read-out: MIC (μg/mL) S. aureus (ATCC29213), Table 5, racemate and enantiomers.
The mark [6] stands for this setting: ATCC29213, read-out: S. aureus MIC (μg/mL) Activity Range, S. aureus (ATCC29213).
The mark [7] stands for this setting: read-out: MIC (μg/mL) FtsZ G196A mutant strain.

Converted amounts (≈) assume the structure as drawn. Read-outs that look alike come from different tables or passages of the source.

On to `COc1ccc(-c2nc(C(C)Oc3ccc(F)c(C(N)=O)c3F)oc2Br)cc1` (racemic) [Compound 5], for which the MIC in data set [1] (setting [4]) was 32 µg/mL (≈ 70.6 µM); in data set [2] (setting [5]), 1 µg/mL (≈ 2.21 µM); in data set [2] (setting [6]), 0.25 to 1 µg/mL (≈ 0.552 to 2.21 µM).
In the case of `COc1ccc(-c2nc([C@H](C)Oc3ccc(F)c(C(N)=O)c3F)oc2Br)cc1` [Compound 5A], the MIC in data set [1] (setting [4]) is greater than 256 µg/mL; in data set [2] (setting [5]), 16 µg/mL (≈ 35.3 µM); in data set [2] (setting [6]), 1 to 16 µg/mL (≈ 2.21 to 35.3 µM).
For `COc1ccc(-c2nc([C@@H](C)Oc3ccc(F)c(C(N)=O)c3F)oc2Br)cc1` [Compound 5B], the MIC in data set [1] (setting [7]) was 16 µg/mL (≈ 35.3 µM); in data set [1] (setting [4]) it was 16 µg/mL (≈ 35.3 µM); in data set [2] (setting [5]), 0.5 µg/mL (≈ 1.1 µM); in data set [2] (setting [6]) it was 0.25 to 1 µg/mL (≈ 0.552 to 2.21 µM).
By AUC is commonly meant concentration integrated over time. As to `CC(Oc1ccc(F)c(C(N)=O)c1F)c1nc(-c2ccc(OC(F)(F)F)cc2)c(Br)o1` (stereo not shown) [Compound 16, 3-(1-(5-bromo-4-(4-(trifluoromethoxy)phenyl)oxazol-2-yl)ethoxy)-2,6-difluorobenzamide], the MIC in data set [2] (setting [6]) was in the range of 0.25 to 1 µg/mL (≈ 0.493 to 1.97 µM). Also, in data set [3], the exposure (AUC) is 1400 ng·h/mL and the “CL” value came to 36 mL/min/kg.
The like results for `CC(Oc1ccc(F)c(C(N)=O)c1F)c1nc(-c2ccc(OC(F)(F)F)cc2)c(Cl)o1` (stereo not shown) [Compound 21, 3-(1-(5-chloro-4-(4-(trifluoromethoxy)phenyl)oxazol-2-yl)ethoxy)-2,6-difluorobenzamide] were, in that order, less than 0.25 µg/mL, 1600 ng·h/mL and 31 mL/min/kg.
In the same order, the values of `CC(Oc1ccc(F)c(C(N)=O)c1F)c1nc(-c2ccc(C(F)(F)F)cc2)c(Br)o1` (stereo not shown) [Compound 27, 3-(1-(5-bromo-4-(4-(trifluoromethyl)phenyl)oxazol-2-yl)ethoxy)-2,6-difluorobenzamide] are less than 0.25 µg/mL, 2200 ng·h/mL and 22 mL/min/kg.
In the case of `NC(=O)c1c(F)ccc(O[C@H](COC(=O)CCC(=O)O)c2nc(-c3ccc(C(F)(F)F)cc3)c(Br)o2)c1F` [Compound 181, (R)-4-(2-(5-bromo-4-(4-(trifluoromethyl)phenyl)oxazol-2-yl)-2-(3-carbamoyl-2,4-difluorophenoxy)ethoxy)-4-oxobutanoic acid], the MIC in data set [2] (setting [6]) was 1 to 16 µg/mL (≈ 1.65 to 26.3 µM). The same compound gave a clearance in data set [3] (mouse, plasma) of 16 mL/min/kg. In addition, the AUC in data set [3] (mouse, plasma, read-out: AUC) was found to be 3000 ng·h/mL.
In the case of `C[C@@H](Oc1ccc(F)c(C(N)=O)c1F)c1nc(-c2ccc(C(F)(F)F)cc2)co1` [Compound 183, (R)-2,6-difluoro-3-(1-(4-(4-(trifluoromethyl)phenyl)oxazol-2-yl)ethoxy)benzamide], the MIC was greater than 256 µg/mL in data set [1] (setting [7]) and 1 to 16 µg/mL (≈ 2.43 to 38.8 µM) in data set [2] (setting [6]).
In the same order, the values of `C[C@@H](Oc1ccc(F)c(C(N)=O)c1F)c1nc(-c2ccc(C(F)(F)F)cc2)c(Br)o1` [Compound 184, (R)-3-(1-(5-bromo-4-(4-(trifluoromethyl)phenyl)oxazol-2-yl)ethoxy)-2,6-difluorobenzamide] are 0.5 µg/mL (≈ 1.02 µM) and less than 0.25 µg/mL.
Regarding `NC(=O)c1c(F)ccc(O[C@@H](CO)c2nc(-c3ccc(F)cc3F)c(Br)o2)c1F` [Compound 233A, (S)-3-(1-(5-bromo-4-(2,4-difluorophenyl)oxazol-2-yl)-2-hydroxyethoxy)-2,6-difluorobenzamide], the MIC in data set [1] (setting [4]) is greater than 256 µg/mL; in data set [2] (setting [5]) it was 32 µg/mL (≈ 67.3 µM); in data set [2] (setting [6]) it was greater than 16 µg/mL.
In the same order, the values of `NC(=O)c1c(F)ccc(O[C@H](CO)c2nc(-c3ccc(F)cc3F)c(Br)o2)c1F` [Compound 233B, (R)-3-(1-(5-bromo-4-(2,4-difluorophenyl)oxazol-2-yl)-2-hydroxyethoxy)-2,6-difluorobenzamide] are 8 µg/mL (≈ 16.8 µM), 0.25 µg/mL (≈ 0.526 µM) and less than 0.25 µg/mL.
With `COc1ccc(-c2coc([C@@H](C)Oc3ccc(F)c(C(N)=O)c3F)n2)cc1` [Compound 268B], the MIC in data set [1] (setting [7]) was greater than 256 µg/mL; in data set [2] (setting [6]) it was 1 to 16 µg/mL (≈ 2.67 to 42.7 µM).
In the same order, the values of `COC(=O)NCC(Oc1ccc(F)c(C(N)=O)c1F)c1nc(-c2ccc(C(F)(F)F)cc2)co1` (stereo not shown) [Compound 287, methyl (2-(3-carbamoyl-2,4-difluorophenoxy)-2-(4-(4-(trifluoromethyl)phenyl)oxazol-2-yl)ethyl)carbamate] are greater than 256 µg/mL and greater than 16 µg/mL.
The like results for `COC(=O)NCC(Oc1ccc(F)c(C(N)=O)c1F)c1nc(-c2ccc(C(F)(F)F)cc2)c(Br)o1` (stereo not shown) [Compound 288, methyl (2-(5-bromo-4-(4-(trifluoromethyl)phenyl)oxazol-2-yl)-2-(3-carbamoyl-2,4-difluorophenoxy)ethyl)carbamate] were, in that order, 16 µg/mL (≈ 28.4 µM) and 0.25 to 1 µg/mL (≈ 0.443 to 1.77 µM).
For `NC(=O)c1c(F)ccc(OC(CNC(=O)c2ccccc2)c2nc(-c3ccc(C(F)(F)F)cc3)co2)c1F` (stereo not shown) [Compound 289, 3-(2-benzamido-1-(4-(4-(trifluoromethyl)phenyl)oxazol-2-yl)ethoxy)-2,6-difluorobenzamide], the MIC is greater than 256 µg/mL in data set [1] (setting [7]) and 1 to 16 µg/mL (≈ 1.88 to 30.1 µM) in data set [2] (setting [6]).
Consider `NC(=O)c1c(F)ccc(OC(CNC(=O)c2ccccc2)c2nc(-c3ccc(C(F)(F)F)cc3)c(Br)o2)c1F` (stereo not shown) [Compound 292, 3-(2-benzamido-1-(5-bromo-4-(4-(trifluoromethyl)phenyl)oxazol-2-yl)ethoxy)-2,6-difluorobenzamide], for which the MIC in data set [1] (setting [7]) was 1 µg/mL (≈ 1.64 µM); in data set [2] (setting [6]) it was less than 0.25 µg/mL.
`NC(=O)c1c(F)ccc(OCc2nc(-c3ccc(Cl)nc3)cs2)c1F` [Compound F, 3-((4-(6-chloropyridin-3-yl)thiazol-2-yl)methoxy)-2,6-difluorobenzamide] showed a clearance in data set [3] (mouse, plasma) of 139 mL/min/kg. The AUC in data set [3] (mouse, plasma, read-out: AUC) is 400 ng·h/mL.
In the same order, the values of `CCCc1oc(COc2ccc(F)c(C(N)=O)c2F)nc1-c1cccc(O)c1` [Compound M, 2,6-difluoro-3-((4-(3-hydroxyphenyl)-5-propyloxazol-2-yl)methoxy)benzamide] are 369 mL/min/kg and 100 ng·h/mL.
`C=CCc1oc(COc2ccc(F)c(C(N)=O)c2F)nc1-c1cccc(O)c1` [Compound N, 3-((5-allyl-4-(3-hydroxyphenyl)oxazol-2-yl)methoxy)-2,6-difluorobenzamide] yielded a clearance in data set [3] (mouse, plasma) of 270 mL/min/kg. For the same compound, the AUC in data set [3] (mouse, plasma, read-out: AUC) amounted to 200 ng·h/mL.
In the same order, the values of `COc1ccc(-c2nc(COc3ccc(F)c(C(N)=O)c3F)sc2-c2ccc(N(C)C)nc2)cc1` [D, 3-((5-(6-(dimethylamino)pyridin-3-yl)-4-(4-methoxyphenyl)thiazol-2-yl)methoxy)-2,6-difluorobenzamide] are 55 mL/min/kg and 900 ng·h/mL.
Regarding `CCOc1cnc2sc(COc3ccc(F)c(C(N)=O)c3F)nc2c1` [E], in data set [3], the “AUC” value was 200 ng·h/mL and the “CL” value is 203 mL/min/kg.
For the compound `COc1cnc(-c2csc(COc3ccc(F)c(C(N)=O)c3F)n2)cn1` [G, 2,6-difluoro-3-((4-(5-methoxypyrazin-2-yl)thiazol-2-yl)methoxy)benzamide], the clearance in data set [3] (mouse, plasma) came out at 82 mL/min/kg. Also, the area under the curve (AUC) in data set [3] (mouse, plasma, read-out: AUC) worked out at 600 ng·h/mL.
Consider `NC(=O)c1c(F)ccc(OCc2nc(-c3cnc(Cl)nc3)cs2)c1F` [H, 3-((4-(2-chloropyrimidin-5-yl)thiazol-2-yl)methoxy)-2,6-difluorobenzamide], for which the clearance in data set [3] (mouse, plasma) amounted to 173 mL/min/kg. The AUC in data set [3] (mouse, plasma, read-out: AUC) was found to be 300 ng·h/mL.
`CCc1oc(COc2ccc(F)c(C(N)=O)c2F)nc1-c1ccc(OC)cc1` [I, 3-((5-ethyl-4-(4-methoxyphenyl)oxazol-2-yl)methoxy)-2,6-difluorobenzamide]: in data set [3], the “AUC” value turned out to be 200 ng·h/mL and the “CL” value is on record as 319 mL/min/kg.
Regarding `COc1ncc(-c2csc(COc3ccc(F)c(C(N)=O)c3F)n2)s1` [J, 2,6-difluoro-3-((2′-methoxy-4,5′-bithiazol-2-yl)methoxy)benzamide], the clearance in data set [3] (mouse, plasma) stood at 180 mL/min/kg. Further, the AUC in data set [3] (mouse, plasma, read-out: AUC) stood at 300 ng·h/mL.
On to `CCCc1oc(COc2ccc(F)c(C(N)=O)c2F)nc1-c1ccc(Cl)cc1` [K], for which, in data set [3], the “AUC” value came out at 400 ng·h/mL and the “CL” value is 137 mL/min/kg.
The compound `Cc1noc(CCc2csc(COc3ccc(F)c(C(N)=O)c3F)n2)n1` [L, 2,6-difluoro-3-((4-(2-(3-methyl-1,2,4-oxadiazol-5-yl)ethyl)thiazol-2-yl)methoxy)benzamide] registered a clearance in data set [3] (mouse, plasma) of 59 mL/min/kg. The AUC in data set [3] (mouse, plasma, read-out: AUC) amounted to 800 ng·h/mL.
